Target: 5'-nucleotidase (Homo sapiens, UniProt P21589)
Assay: Enzyme Activity In Vitro Assay: I. Experimental Materials and Equipment1. Malachite green phosphate detection kit (R & D Systems, Cat #, DY996)2. Recombinant human 5′-nucleotidase (CD73) (R & D Systems, Cat #, 5795-EN)3. HEPES buffer (Gibco, Cat #, 15630-080)4. CMP (Sigma, Cat #, C1006)5. DMSO (Fisher Chemical, Cat #, D128-1)6. NaCl 5M (Boston Bioproducts, Cat #, BM-244)7.384-well plate (Fisher, Cat #, 5795-EN)8. TECAN plate reader (TECAN)II. Experimental ProcedureCompounds are first dissolved in DMSO to 10 mM as a stock solution. When determining the IC50 of the compound, prepare 3-fold serial dilutions with a highest concentration of 125 μM for a total of 12 concentration points and ensure each dilution containing equal amount of DMSO. In each well of 384-well plate, 0.34 nM of recombinant human 5′-nucleotidase (CD73) was pre-incubated at 37° C. for 2 hours with the compounds tested in assay buffer containing 20 mM HEPES buffer (pH 7.4), 137 mM NaCl, 0.001% Tween 20. The final reaction volume of the reaction in each well was 12 μL. The highest concentration of compound was 125 μM and the DMSO concentration was 1.25%. After pre-incubation, 3 μL of CMP dissolved in assay buffer was added to each reaction. The final CMP concentration was 45 μM. The reaction was incubated at 37° C. for 15 minutes. Then 3 μL of Malachite Green Reagent A was added to each reaction. […]

Chain of 5'-nucleotidase (P21589 whole entry): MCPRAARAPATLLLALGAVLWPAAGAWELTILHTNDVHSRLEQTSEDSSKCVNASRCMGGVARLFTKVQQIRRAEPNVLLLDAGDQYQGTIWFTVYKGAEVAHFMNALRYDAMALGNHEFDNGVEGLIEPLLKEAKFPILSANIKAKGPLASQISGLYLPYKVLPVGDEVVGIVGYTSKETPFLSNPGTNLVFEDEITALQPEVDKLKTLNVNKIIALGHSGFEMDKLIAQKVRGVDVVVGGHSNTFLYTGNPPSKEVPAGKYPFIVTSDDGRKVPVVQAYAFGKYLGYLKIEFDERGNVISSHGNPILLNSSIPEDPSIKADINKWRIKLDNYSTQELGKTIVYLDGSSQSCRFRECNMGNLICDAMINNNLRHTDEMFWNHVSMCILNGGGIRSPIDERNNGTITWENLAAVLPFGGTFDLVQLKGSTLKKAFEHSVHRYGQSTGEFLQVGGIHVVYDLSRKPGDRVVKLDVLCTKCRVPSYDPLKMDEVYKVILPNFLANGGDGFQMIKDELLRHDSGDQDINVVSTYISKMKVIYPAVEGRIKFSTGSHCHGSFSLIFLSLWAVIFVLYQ

IC50: 270 nM
SMILES: CC(OC(=O)C(C)(C)C)OP(=O)(COC[C@H]1O[C@@H](n2ncc3c(N4CC5(CCc6ccccc65)C4)nc(Cl)nc32)[C@H](O)[C@@H]1O)OC(C)OC(=O)C(C)(C)C (stereo partly specified)
